From patent US9416111B2, “Substituted diazine and triazine spleen tyrosine kinease (Syk) inhibitors” (Merck Sharp & Dohme Corp., priority 2012, dated 2016) come the findings set out here.

Several values for one entry are separate records, joined by “and”; a condition that tells them apart may be missing. Equal values may be shown once. Read-outs that look alike come from different tables or passages of the source. Some results are limits rather than exact numbers.

This assay deals with T1, recombinant human GST-SYK (Homo sapiens, UniProt P43405).
T1 construct: purchased Carna Biosciences 08-176
The experiment in a line: Homogeneous Time-Resolved Fluorescence (HTRF) assay for the recombinant human Syk enzyme. The format is biochemical. To be noted: GST-hSYK 5 pM, ATP 25 μM. Put shortly:
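HTRF read-out, via Europium anti-phosphotyrosine antibody and SA-APC added with EDTA, measured phosphorylation of a 250 nM biotinylated substrate after 45 min at room temperature with 25 μM ATP and 5 mM magnesium. Enzyme was 5 pM GST-hSYK, preincubated 10 min with compound in Tris pH 7.5 buffer containing DTT.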
For orientation: In TR-FRET formats the signal depends on donor and acceptor labels being close together.

The mark [1] stands for this setting: IC50 rated in classes, read-out: rhSYK Activity.

For the compound `Cc1cc(Nc2nccc(C(F)(F)F)n2)cc(-c2cnc(N[C@@H]3CCC(=O)NC3)nc2)c1` [Example 2.72, (5R)-5-{[5-(3-methyl-5-{[4-(trifluoromethyl)pyrimidin-2-yl]amino}phenyl)pyrimidin-2-yl]amino}piperidin-2-one], under setting [1], the IC50 is below 100 nM. Still for that read-out and setting: next, `Cc1cc(Nc2nccc(C(F)(F)F)n2)cc(-c2cnc(N[C@H]3CCC(=O)NC3)nc2)c1` [Example 2.73, (5S)-5-{[5-(3-methyl-5-{[4-(trifluoromethyl)pyrimidin-2-yl]amino}phenyl)pyrimidin-2-yl]amino}piperidin-2-one]: below 100 nM. Same read-out and setting: next, `Cc1cc(Nc2nccc(C(F)(F)F)n2)cc(-c2cnc(N3CCCC(O)C3)nc2)c1` (centres unmarked) [Example 2.75, 1-[5-(3-methyl-5-{[4-(trifluoromethyl)pyrimidin-2-yl]amino}phenyl)pyrimidin-2-yl]piperidin-3-ol]: below 100 nM; `Cc1cc(Nc2nccc(C(F)(F)F)n2)cc(-c2cnc(NC3(C(=O)O)CCCC3)nc2)c1` [Example 2.76, 1-{[5-(3-methyl-5-{[4-(trifluoromethyl)pyrimidin-2-yl]amino}phenyl)pyrimidin-2-yl]amino}cyclopentanecarboxylic acid]: below 100 nM; `Cc1cc(Nc2nccc(C(F)(F)F)n2)cc(-c2cnc(N3CCC(C(=O)O)CC3)nc2)c1` [Example 2.79, 1-[5-(3-methyl-5-{[4-(trifluoromethyl)pyrimidin-2-yl]amino}phenyl)pyrimidin-2-yl]piperidine-4-carboxylic acid]: below 100 nM. Still for that read-out and setting: then `Cc1cc(Nc2nccc(C(F)(F)F)n2)cc(-c2cnc(N(C)C(=O)CC#N)nc2)c1` [Example 2.80, 2-cyano-N-methyl-N-[5-(3-methyl-5-{[4-(trifluoromethyl)pyrimidin-2-yl]amino}phenyl)pyrimidin-2-yl]acetamide], with below 100 nM.

As for `Cc1cc(Nc2nccc(C3CC3)n2)cc(-c2cnc(CCC(=O)O)nc2)c1` [Example 3.1, 3-(5-{3-[(4-cyclopropylpyrimidin-2-yl)amino]-5-methylphenyl}pyrimidin-2-yl)propanoic acid], the IC50 (values in text, read-out: IC50) worked out at 51.6 nM. `Cc1cc(Nc2nccc(C(F)(F)F)n2)cc(-c2cnccn2)c1` [Example 3.2, N-(3-methyl-5-pyrazin-2-ylphenyl)-4-(trifluoromethyl)pyrimidin-2-amine]: under setting [1], the IC50 was 100 to 1000 nM and < 100 nM.

On to `CCOC(=O)CCc1cnc(-c2cccc(Nc3nccc(C(F)(F)F)n3)c2)cn1` [Example 3.3, ethyl 3-[5-(3-{[4-(trifluoromethyl)pyrimidin-2-yl]amino}phenyl)pyrazin-2-yl]propanoate], for which, under setting [1], the IC50 fell in the range of 1000 to 10000 nM.

Take `O=C(O)CCc1cnc(-c2cccc(Nc3nccc(C(F)(F)F)n3)c2)cn1` [Example 3.4, 3-[5-(3-{[4-(trifluoromethyl)pyrimidin-2-yl]amino}phenyl)pyrazin-2-yl]propanoic acid]: the IC50 under setting [1] lay within 100 to 1000 nM. On the same count and under the same terms, then `COc1ccnc(Nc2cc(C)cc(-c3cnc(CCC(=O)O)cn3)c2)n1` [Example 3.6, 3-(5-{3-[(4-methoxypyrimidin-2-yl)amino]-5-methylphenyl}pyrazin-2-yl)propanoic acid], with below 100 nM; and `CCOC(=O)CCc1cnc(-c2cc(C)cc(Nc3nccc(C(F)(F)F)n3)c2)cn1` [Example 3.7, ethyl 3-[5-(3-methyl-5-{[4-(trifluoromethyl)pyrimidin-2-yl]amino}phenyl)pyrazin-2-yl]propanoate], with 100 to 1000 nM; and `Cc1cc(Nc2nccc(C(F)(F)F)n2)cc(-c2cnc(CCC(=O)O)cn2)c1` [Example 3.8, 3-[5-(3-methyl-5-{[4-(trifluoromethyl)pyrimidin-2-yl]amino}phenyl)pyrazin-2-yl]propanoic acid], with below 100 nM. The same measure, in the same setting: then `CCOC(=O)CCc1cnc(-c2cc(C)cc(Nc3nccc(C)n3)c2)cn1` [Example 3.9, ethyl 3-(5-{3-methyl-5-[(4-methylpyrimidin-2-yl)amino]phenyl}pyrazin-2-yl)propanoate], with 100 to 1000 nM; and `Cc1cc(Nc2nccc(C)n2)cc(-c2cnc(CCC(=O)O)cn2)c1` [Example 3.10, 3-(5-{3-methyl-5-[(4-methylpyrimidin-2-yl)amino]phenyl}pyrazin-2-yl)propanoic acid], with 100 to 1000 nM; and `CCOC(=O)CCc1cnc(-c2cc(C)cc(Nc3nccc(C4CC4)n3)c2)cn1` [Example 3.11, ethyl 3-(5-{3-[(4-cyclopropylpyrimidin-2-yl)amino]-5-methylphenyl}pyrazin-2-yl)propanoate], with below 100 nM. Same read-out and setting: next, `Cc1cc(Nc2nccc(C3CC3)n2)cc(-c2cnc(CCC(=O)O)cn2)c1` [Example 3.12, 3-(5-{3-[(4-cyclopropylpyrimidin-2-yl)amino]-5-methylphenyl}pyrazin-2-yl)propanoic acid]: below 100 nM. For the compound `CCOC(=O)CCc1cncc(-c2cccc(Nc3nccc(C(F)(F)F)n3)c2)n1` [Example 3.13, ethyl 3-[6-(3-{[4-(trifluoromethyl)pyrimidin-2-yl]amino}phenyl)pyrazin-2-yl]propanoate], the IC50 under setting [1] lay within 1000 to 10000 nM.

For the compound `O=C(O)CCc1cncc(-c2cccc(Nc3nccc(C(F)(F)F)n3)c2)n1` [Example 3.14, 3-[6-(3-{[4-(trifluoromethyl)pyrimidin-2-yl]amino}phenyl)pyrazin-2-yl]propanoic acid], under setting [1], the IC50 was in the range of 100 to 1000 nM.

`COc1ccnc(Nc2cc(C)cc(-c3cncc(CCC(=O)O)n3)c2)n1` [Example 3.16, 3-(6-{3-[(4-methoxypyrimidin-2-yl)amino]-5-methylphenyl}pyrazin-2-yl)propanoic acid]: the IC50 under setting [1] was below 100 nM. As to `CCOC(=O)CCc1cncc(-c2cc(C)cc(Nc3nccc(C(F)(F)F)n3)c2)n1` [Example 3.17, ethyl 3-[6-(3-methyl-5-{[4-(trifluoromethyl)pyrimidin-2-yl]amino}phenyl)pyrazin-2-yl]propanoate], under setting [1], the IC50 is 100 to 1000 nM. Turning to `Cc1cc(Nc2nccc(C(F)(F)F)n2)cc(-c2cncc(CCC(=O)O)n2)c1` [Example 3.18, 3-[6-(3-methyl-5-{[4-(trifluoromethyl)pyrimidin-2-yl]amino}phenyl)pyrazin-2-yl]propanoic acid], the IC50 under setting [1] is below 100 nM. The same measure, in the same setting: then `CCOC(=O)CCc1cncc(-c2cc(C)cc(Nc3nccc(C)n3)c2)n1` [Example 3.19, ethyl 3-(6-{3-methyl-5-[(4-methylpyrimidin-2-yl)amino]phenyl}pyrazin-2-yl)propanoate], with 100 to 1000 nM; and `Cc1cc(Nc2nccc(C)n2)cc(-c2cncc(CCC(=O)O)n2)c1` [Example 3.20, 3-(6-{3-methyl-5-[(4-methylpyrimidin-2-yl)amino]phenyl}pyrazin-2-yl)propanoic acid], with 100 to 1000 nM. The same measure, in the same setting: next, `CCOC(=O)CCc1cncc(-c2cc(C)cc(Nc3nccc(C4CC4)n3)c2)n1` [Example 3.21, ethyl 3-(6-{3-[(4-cyclopropylpyrimidin-2-yl)amino]-5-methylphenyl}pyrazin-2-yl)propanoate]: 100 to 1000 nM; `Cc1cc(Nc2nccc(C3CC3)n2)cc(-c2cncc(CCC(=O)O)n2)c1` [Example 3.22, 3-(6-{3-[(4-cyclopropylpyrimidin-2-yl)amino]-5-methylphenyl}pyrazin-2-yl)propanoic acid]: below 100 nM.

For the compound `Cc1cc(Nc2nccc(C(F)(F)F)n2)cc(-c2ncccn2)c1` [Example 3.23, N-(3-methyl-5-pyrimidin-2-ylphenyl)-4-(trifluoromethyl)pyrimidin-2-amine], under setting [1], the IC50 lay in the range of 100 to 1000 nM. On to `CCOC(=O)CCc1ccc(-c2cccc(Nc3nccc(C(F)(F)F)n3)c2)nn1` [Example 3.24, ethyl 3-[6-(3-{[4-(trifluoromethyl)pyrimidin-2-yl]amino}phenyl)pyridazin-3-yl]propanoate], for which, under setting [1], the IC50 fell in the range of 1000 to 10000 nM.

Consider `O=C(O)CCc1ccc(-c2cccc(Nc3nccc(C(F)(F)F)n3)c2)nn1` [Example 3.25, 3-[6-(3-{[4-(trifluoromethyl)pyrimidin-2-yl]amino}phenyl)pyridazin-3-yl]propanoic acid], for which, under setting [1], the IC50 fell in the range of 100 to 1000 nM. Same read-out and setting: next, `CCOC(=O)CCc1ccc(-c2cc(C)cc(Nc3nccc(C(F)(F)F)n3)c2)nn1` [Example 3.27, ethyl 3-[6-(3-methyl-5-{[4-(trifluoromethyl)pyrimidin-2-yl]amino}phenyl)pyridazin-3-yl]propanoate]: 100 to 1000 nM; `Cc1cc(Nc2nccc(C(F)(F)F)n2)cc(-c2cccnn2)c1` [Example 3.28, N-(3-methyl-5-pyridazin-3-ylphenyl)-4-(trifluoromethyl)pyrimidin-2-amine]: 100 to 1000 nM; `Cc1cc(Nc2nccc(C(F)(F)F)n2)cc(-c2ccc(N3CCOCC3)nn2)c1` [Example 3.29, N-[3-methyl-5-(6-morpholin-4-ylpyridazin-3-yl)phenyl]-4-(trifluoromethyl)pyrimidin-2-amine]: 100 to 1000 nM.

As to `Cc1cc(Nc2nccc(C(F)(F)F)n2)cc(-c2ccc(N3CCC(O)CC3)nn2)c1` [Example 3.30, 1-[6-(3-methyl-5-{[4-(trifluoromethyl)pyrimidin-2-yl]amino}phenyl)pyridazin-3-yl]piperidin-4-ol], the IC50 under setting [1] was in the range of 100 to 1000 nM. Same read-out and setting: next, `Cc1cc(Nc2nccc(C(F)(F)F)n2)cc(-c2ccc(N3CCC(C(N)=O)CC3)nn2)c1` [Example 3.31, 1-[6-(3-methyl-5-{[4-(trifluoromethyl)pyrimidin-2-yl]amino}phenyl)pyridazin-3-yl]piperidine-4-carboxamide]: below 100 nM. Same read-out and setting: next, `Cc1cc(Nc2nccc(C(F)(F)F)n2)cc(-c2ccc(-c3cccc(C(=O)O)c3)nn2)c1` [Example 3.32, 3-[6-(3-methyl-5-{[4-(trifluoromethyl)pyrimidin-2-yl]amino}phenyl)pyridazin-3-yl]benzoic acid]: below 100 nM.
